Data taken from ChEMBL document CHEMBL1777668, “Structure-activity relationship of cyclic thiacarbocyanine tau aggregation inhibitors” (Bioorg Med Chem Lett, 2011).
Activity calls are given as the source filed them. The rule behind the calls is not given here.

Key:
Homo sapiens [1] = species: Homo sapiens; experiment: Inhibition of octadecyl sulfate-induced recombinant human tau 2N4R aggregation at 10 uM by electron microscopy
Homo sapiens [2] = species: Homo sapiens; experiment: Inhibition of octadecyl sulfate-induced recombinant human tau 2N4R aggregation at 1 uM by electron microscopy

For `C1=C2\Sc3ccccc3N2CCC[n+]2c(sc3ccccc32)/C=C/C=C2\Sc3ccccc3N2CCC[n+]2c(sc3ccccc32)/C=C/1`, the inhibition (Homo sapiens [1]) was “Active” and the inhibition (Homo sapiens [2]) was “inactive”.
In the case of `C1=C2\Sc3ccccc3N2CCCCC[n+]2c(sc3ccccc32)/C=C/C=C2\Sc3ccccc3N2CCCCC[n+]2c(sc3ccccc32)/C=C/1`, the inhibition (Homo sapiens [1]) was “Active”.
In the case of `C1=C2\Sc3ccccc3N2CCCC[n+]2c(sc3ccccc32)/C=C/C=C2\Sc3ccccc3N2CCCC[n+]2c(sc3ccccc32)/C=C/1`, the inhibition (Homo sapiens [1]) was “Active” and the inhibition (Homo sapiens [2]) was “Active”.
In the case of `C1=C2\Sc3ccccc3N2CCCCCC[n+]2c(sc3ccccc32)/C=C/C=C2\Sc3ccccc3N2CCCCCC[n+]2c(sc3ccccc32)/C=C/1`, the inhibition (Homo sapiens [1]) was “Active”.
For `C1=C2\Sc3ccccc3N2CCCCCCC[n+]2c(sc3ccccc32)/C=C/C=C2\Sc3ccccc3N2CCCCCCC[n+]2c(sc3ccccc32)/C=C/1`, the inhibition (Homo sapiens [1]) was “Active”.
`C1=C2\Sc3ccccc3N2CCCCCCCC[n+]2c(sc3ccccc32)/C=C/C=C2\Sc3ccccc3N2CCCCCCCC[n+]2c(sc3ccccc32)/C=C/1` was tested, and the inhibition (Homo sapiens [1]) was “Active”.
